Reference: patent US12319655B2, “RAF kinase inhibitors and methods of use thereof” (Deciphera Pharmaceuticals, LLC, priority 2021, dated 2025)

Each compound was assayed on H2405 cells (assay: H2405 Cell Proliferation Assay (2)). Conditions: Homo sapiens, NCI-H2405.
Format: cell-based
Description: H2405 Cell Proliferation Assay (2)
H2405 cells (catalog #CRL-5994) are obtained from the American Type Culture Collect (ATTC, Manassas, VA). Briefly, cells were grown in RPMI 1640 supplemented with 5% characterized fetal bovine serum (Invitrogen, Carlsbad, CA) and 1% Penicillin/Streptomycin/L-Glutamine at 37° C., 5% CO2, and 95% humidity. Cells are expanded until reaching 70-95% confluency at which point they are sub-cultured or harvested for assay use. A serial dilution of test compound is dispensed into a 384-well black clear bottom plate in triplicate. Seven hundred fifty cells are added per well in 50 μL complete growth medium in the 384-well plate. Plates are incubated for 67-72 h at 37° C., 5% CO2, and 95% humidity. At the end of the incubation, 10 μL of a 440 μM solution of resazurin (Sigma, St. Louis, MO) in PBS is added to each well of the plate and plates are incubated for an additional 5-6 h at 37° C., 5% CO2, and 95% humidity. Plates are read on a Synergy2 or equivalent reader (Biotek, Winooski VT) using an excitation of 540 nm and an emission of 600 nm. Data is analyzed using Prism software (GraphPad, San Diego, CA) to calculate IC50 values

Row | SMILES | IC50 [nM]
1 | CNC(=N)c1cc(-c2cc(-c3cc(NC(=O)c4ccnc(C(C)(C)F)c4)ccc3C)ccn2)ccn1 [Example 452] | 100 to 500
2 | Cc1ccc(NC(=O)c2ccnc(C(C)(C)F)c2)cc1-c1ccnc(-c2ccnc(C(=O)NCCN(C)C)c2)c1 [Example 453] | 100 to 500
3 | Cc1ncc(NC(=O)c2ccnc(C(C)(C)F)c2)cc1-c1ccnc(-c2ccnc(NC(=O)C3CC3)c2)c1 [Example 454] | ≤ 100
4 | Cc1ccc(NC(=O)c2ccnc(C(C)(C)F)c2)cc1-c1ccnc(-c2ccnc(NC(=O)C3CC3)c2)c1 [Example 455] | ≤ 100
5 | Cc1ccc(NC(=O)c2ccnc(C(C)(C)C#N)c2)cc1-c1ccnc(-c2ccnc(NC(=O)C3CC3)c2)c1 [Example 456] | ≤ 100
6 | Cc1ccc(NC(=O)c2ccnc(C3(C#N)CC3)c2)cc1-c1ccnc(-c2ccnc(NC(=O)C3CC3)c2)c1 [Example 457] | ≤ 100
7 | Cc1ccc(NC(=O)c2ccnc(C3CC3)c2)cc1-c1ccnc(-c2ccnc(NC(=O)C3CC3)c2)c1 [Example 458] | ≤ 100
8 | Cc1ccc(NC(=O)c2ccnc(C(C)(F)F)c2)cc1-c1ccnc(-c2ccnc(NC(=O)C3CC3)c2)c1 [Example 459] | ≤ 100
9 | CNC(=O)c1cc(-c2cc(-c3cc(NC(=O)c4ccnc(C5CC5)c4)ccc3C)ccn2)ccn1 [Example 460] | 100 to 500
10 | Cc1ncc(NC(=O)c2ccnc(C3(C#N)CC3)c2)cc1-c1ccnc(-c2ccnc(NC(=O)C3CC3)c2)c1 [Example 461] | ≤ 100
11 | CNC(=O)c1cc(-c2cc(-c3cc(NC(=O)c4ccnc(C5CC5)c4)cnc3C)ccn2)ccn1 [Example 462] | 500 to 1000
12 | CNC(=O)c1cc(-c2cc(-c3cc(NC(=O)c4ccnc(C(C)C)c4)cnc3C)ccn2)ccn1 [Example 465] | 100 to 500
13 | Cc1ncc(NC(=O)c2ccnc(C(C)(F)F)c2)cc1-c1ccnc(-c2ccnc(NC(=O)C3CC3)c2)c1 [Example 466] | 100 to 500
14 | Cc1ccc(NC(=O)c2ccnc(C(C)C)c2)cc1-c1ccnc(-c2ccnc(NC(=O)C3CC3)c2)c1 [Example 467] | ≤ 100
15 | Cc1ncc(NC(=O)c2ccnc(C(C)C)c2)cc1-c1ccnc(-c2ccnc(NC(=O)C3CC3)c2)c1 [Example 468] | ≤ 100
16 | CNC(=O)c1cc(-c2cc(-c3cc(NC(=O)c4ccnc(C(C)(C)F)c4)ccc3C)c(F)cn2)ccn1 [Example 469] | 100 to 500

Row | SMILES | IC50 [nM]
17 | CNC(=O)c1cc(-c2cc(-c3cc(NC(=O)c4ccnc(C(C)(C)F)c4)ccc3C)cc(C)n2)ccn1 [Example 470] | ≤ 100
18 | CNC(=O)c1cc(-c2cc(-c3cc(NC(=O)c4ccnc(C(C)(C)F)c4)ccc3C(F)(F)F)ccn2)ccn1 [Example 471] | 1000 to 10000
19 | CNC(=O)c1cc(-c2cc(-c3cc(NC(=O)c4ccnc(C(C)(C)F)c4)ccc3C)c(C)cn2)ccn1 [Example 472] | 100 to 500
20 | CNC(=O)c1cc(-c2cc(-c3cc(NC(=O)c4ccnc(C(C)(C)F)c4)ccc3C)cnn2)ccn1 [Example 473] | 100 to 500
21 | CNC(=O)c1cc(-c2cc(-c3cc(NC(=O)c4ccnc(C(C)(C)F)c4)ccc3C)ncn2)ccn1 [Example 474] | ≤ 100
22 | CNC(=O)c1cc(-c2cc(-c3cc(F)cc(NC(=O)c4ccnc(C(C)(C)F)c4)c3F)ccn2)ccn1 [Example 475] | 1000 to 10000
23 | Cc1ccc(NC(=O)c2ccnc(C(C)(C)F)c2)cc1-c1ccnc(-c2ccnc(C(N)=O)c2)c1 [Example 476] | ≤ 100
24 | CNC(=O)c1cc(-c2cc(-c3cc(NC(=O)c4cnnc(C(F)(F)F)c4)ccc3C)ccn2)ccn1 [Example 477] | 1000 to 10000
25 | CNC(=O)c1cc(-c2cc(-c3cc(NC(=O)c4ccnc(C(C)(C)F)c4)cc(F)c3F)ccn2)ccn1 [Example 478] | ≤ 100
26 | CNC(=O)c1cc(-c2cc(-c3cc(NC(=O)c4ccnc(C(C)(C)F)c4)ccc3F)ccn2)ccn1 [Example 479] | 100 to 500
27 | CNC(=O)c1cc(-c2cc(-c3cc(NC(=O)c4ccnc(C(C)(C)F)c4)cc(F)c3C)ccn2)ccn1 [Example 480] | 100 to 500
28 | CNC(=O)c1cc(-c2cc(-c3cc(NC(=O)c4ccnc(C(C)(C)F)c4)ccn3)ccn2)ccn1 [Example 481] | 1000 to 10000
29 | CNC(=O)c1cc(-c2cc(-c3cc(NC(=O)c4ccnc(C(C)(C)F)c4)c(F)cc3F)ccn2)ccn1 [Example 482] | 100 to 500
30 | Cc1cc(-c2cc(NC(=O)c3ccnc(C(C)(C)F)c3)ccc2C)cc(-c2ccnc(C#N)c2)n1 [Example 483] | 1000 to 10000
31 | Cc1cc(-c2cc(NC(=O)c3ccnc(C(C)(C)F)c3)ccc2C)cc(-c2ccnc(C(N)=O)c2)n1 [Example 484] | 100 to 500
